Assay results taken from patent publication US10508085B2, “Compounds and methods for IDO and TDO modulation, and indications therefor” (Plexxikon Inc., priority 2016, dated 2019).

Tests used:
[1] = biological target: T1, human TDO (TDO-expressing HEK293 cells) (Homo sapiens, UniProt P48775); assay: Cell based kynurenine assay, TDO-expressing HEK293 cell clones; settings: TDO-expressing HEK293 cells, 24 hours, geometric mean; read-out: HEK293 TDO Kynurenine GMean IC50 (μM) (Cellular Assay)
T1 construct: expressed in transfected cells
T1 sequence (P48775 whole entry): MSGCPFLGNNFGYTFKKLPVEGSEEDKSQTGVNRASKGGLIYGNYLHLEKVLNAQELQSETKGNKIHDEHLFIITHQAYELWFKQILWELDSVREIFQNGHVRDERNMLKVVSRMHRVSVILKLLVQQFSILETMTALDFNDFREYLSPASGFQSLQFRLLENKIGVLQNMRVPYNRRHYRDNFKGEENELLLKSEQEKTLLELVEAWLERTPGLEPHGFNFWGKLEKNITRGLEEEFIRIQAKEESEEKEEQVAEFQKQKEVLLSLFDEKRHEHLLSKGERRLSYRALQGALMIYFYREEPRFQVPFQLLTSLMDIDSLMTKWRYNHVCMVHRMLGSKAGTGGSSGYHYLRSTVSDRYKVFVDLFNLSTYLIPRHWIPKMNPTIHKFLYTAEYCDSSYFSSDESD
Summary of the method: (§1)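 IC50 values come from nonlinear regression of kynurenine reduction in supernatants of human IDO1- or TDO-expressing HEK293 cells incubated 24 h with serially diluted compounds, normalised to cell and media-only controls containing 0.2% DMSO.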

[2] = biological target: T2, human IDO (IDO1-expressing HEK293 cells) (Homo sapiens, UniProt P14902); assay: Cell based kynurenine assay, IDO1-expressing HEK293 cell clones; settings: IDO1-expressing HEK293 cells, 24 hours, geometric mean; read-out: HEK293 IDO1 Kynurenine GMean IC50 (μM) (Cellular Assay)
T2 construct: expressed in transfected cells
T2 sequence (P14902 whole entry): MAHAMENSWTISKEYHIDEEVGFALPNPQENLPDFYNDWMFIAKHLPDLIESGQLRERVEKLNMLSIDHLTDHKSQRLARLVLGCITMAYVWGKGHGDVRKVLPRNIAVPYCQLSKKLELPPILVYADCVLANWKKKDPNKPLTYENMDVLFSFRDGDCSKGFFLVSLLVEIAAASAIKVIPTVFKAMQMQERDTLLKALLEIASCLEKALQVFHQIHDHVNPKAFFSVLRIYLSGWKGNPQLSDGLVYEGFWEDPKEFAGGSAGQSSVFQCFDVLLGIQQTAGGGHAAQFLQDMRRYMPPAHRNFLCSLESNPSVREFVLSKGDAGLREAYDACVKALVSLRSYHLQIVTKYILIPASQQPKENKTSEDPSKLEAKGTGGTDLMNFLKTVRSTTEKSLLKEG
Summary of the method: as §1

[3] = biological target: T3, Human Indoleamine 2,3-dioxygenase (IDO) (Homo sapiens, UniProt P14902); assay: Human IDO enzymatic assay (kynurenine level); type: biochemical; settings: 6 nM IDO, 10 μM L-Trp; geometric mean; read-out: IDO1 GMean: IC50 (μM) (Biochemical Assay)
T3 construct: His tag (N); made in house; host or cells: E. coli
T3 sequence (P14902 whole entry): as above
Summary of the method: (§2)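 Kynurenine formed is measured after TCA quench and 50 °C hydrolysis, with % inhibition against full-reaction and no-enzyme controls (5% DMSO). IDO: 6 nM enzyme, 10 μM L-Trp, 5 μM methylene blue, 20 min; TDO: 1 nM, 350 μM L-Trp, 0.4 μM methylene blue, 70 min; both pH 6.5, room temp, E. coli-expressed His-tagged.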

[4] = biological target: T4, Human Tryptophan 2,3-dioxygenase (TDO) (Homo sapiens, UniProt P48775); assay: Human TDO enzymatic assay (kynurenine level); type: biochemical; settings: 1 nM TDO, 350 μM L-Trp; geometric mean; read-out: TDO GMean: IC50 (μM) (Biochemical Assay)
T4 construct: His tag (N); made in house; host or cells: E. coli
T4 sequence (P48775 whole entry): as the sequence (P48775 whole entry) above
Summary of the method: as §2

Row | IC50 [1] | IC50 [2] | IC50 [3] | IC50 [4] | Structure (SMILES)
1 | > 10 µM | 0.0001 to 10 µM | 0.0001 to 10 µM | 0.0001 to 10 µM | CS(=O)(=O)NC12CCC(C(O)c3cc(Cl)cc4cn[nH]c34)(CC1)CC2 (stereo not drawn) [Compound P-0415, N-(4-((5-chloro-1H-indazol-7-yl)(hydroxy)methyl)bicyclo[2.2.2]octan-1-yl) methanesulfonamide]
2 | 0.0001 to 10 µM | 0.0001 to 10 µM | 0.0001 to 10 µM | 0.0001 to 10 µM | CC(C)(C1CCN(C(=O)C2CC2)CC1)C(O)c1c(F)c(Cl)cc2cn[nH]c12 (stereo not drawn) [Compound P-0416, (4-(1-(5-chloro-6-fluoro-1H-indazol-7-yl)-1-hydroxy-2-methylpropan-2-yl)piperidin-1-yl)(cyclopropyl) methanone]
3 | 0.0001 to 10 µM | 0.0001 to 10 µM | 0.0001 to 10 µM | 0.0001 to 10 µM | CC(C)(C1CCN(C(=O)c2ccccc2)CC1)C(O)c1c(F)c(Cl)cc2cn[nH]c12 (stereo not drawn) [Compound P-0417, (4-(1-(5-chloro-6-fluoro-1H-indazol-7-yl)-1-hydroxy-2-methylpropan-2-yl)piperidin-1-yl)(phenyl) methanone]
4 | 0.0001 to 10 µM | 0.0001 to 10 µM | 0.0001 to 10 µM | 0.0001 to 10 µM | CC(C)(C1CCN(C(=O)c2cccnc2)CC1)C(O)c1c(F)c(Cl)cc2cn[nH]c12 (stereo not drawn) [Compound P-0418, (4-(1-(5-chloro-6-fluoro-1H-indazol-7-yl)-1-hydroxy-2-methylpropan-2-yl)piperidin-1-yl)(pyridin-3-yl)methanone]
5 | 0.0001 to 10 µM | 0.0001 to 10 µM | 0.0001 to 10 µM | 0.0001 to 10 µM | COCCNC(=O)N1CCC(C(C)(C)C(O)c2c(F)c(Cl)cc3cn[nH]c23)CC1 (stereo not drawn) [Compound P-0419, 4-(1-(5-chloro-6-fluoro-1H-indazol-7-yl)-1-hydroxy-2-methylpropan-2-yl)-N-(2-methoxyethyl) piperidine-1-carboxamide]
6 | 0.0001 to 10 µM | 0.0001 to 10 µM | 0.0001 to 10 µM | 0.0001 to 10 µM | COCCCNC(=O)N1CCC(C(C)(C)C(O)c2c(F)c(Cl)cc3cn[nH]c23)CC1 (stereo not drawn) [Compound P-0420, 4-(1-(5-chloro-6-fluoro-1H-indazol-7-yl)-1-hydroxy-2-methylpropan-2-yl)-N-(3-methoxypropyl) piperidine-1-carboxamide]
7 | 0.0001 to 10 µM | 0.0001 to 10 µM | 0.0001 to 10 µM | 0.0001 to 10 µM | CCC(=O)N1CCC(C(C)(C)C(O)c2c(F)c(Cl)cc3cn[nH]c23)CC1 (stereo not drawn) [Compound P-0421, 1-(4-(1-(5-chloro-6-fluoro-1H-indazol-7-yl)-1-hydroxy-2-methylpropan-2-yl)piperidin-1-yl)propan-1-one]
8 | 0.0001 to 10 µM | 0.0001 to 10 µM | 0.0001 to 10 µM | 0.0001 to 10 µM | CC(=O)N1CCC(C(C)(C)[C@@H](O)c2cc(Cl)cc3cn[nH]c23)CC1 [Compound P-0422, (R)-1-(4-(1-(5-chloro-1H-indazol-7-yl)-1-hydroxy-2-methylpropan-2-yl)piperidin-1-yl)ethan-1-one]
9 | 0.0001 to 10 µM | 0.0001 to 10 µM | 0.0001 to 10 µM | 0.0001 to 10 µM | CCC(=O)N1CCC(C(C)(C)[C@@H](O)c2cc(Cl)cc3cn[nH]c23)CC1 [Compound P-0423, (R)-1-(4-(1-(5-chloro-1H-indazol-7-yl)-1-hydroxy-2-methylpropan-2-yl)piperidin-1-yl)propan-1-one]
10 | 0.0001 to 10 µM | > 10 µM | 0.0001 to 10 µM | 0.0001 to 10 µM | CC(C)(C1CCN(C(=O)C2CC2)CC1)[C@@H](O)c1cc(Cl)cc2cn[nH]c12 [Compound P-0424, (R)-(4-(1-(5-chloro-1H-indazol-7-yl)-1-hydroxy-2-methylpropan-2-yl)piperidin-1-yl)(cyclopropyl) methanone]
11 | 0.0001 to 10 µM | 0.0001 to 10 µM | 0.0001 to 10 µM | 0.0001 to 10 µM | COCCNC(=O)N1CCC(C(C)(C)[C@@H](O)c2cc(Cl)cc3cn[nH]c23)CC1 [Compound P-0425, (R)-4-(1-(5-chloro-1H-indazol-7-yl)-1-hydroxy-2-methylpropan-2-yl)-N-(2-methoxyethyl) piperidine-1-carboxamide]
12 | 0.0001 to 10 µM | > 10 µM | 0.0001 to 10 µM | 0.0001 to 10 µM | CC(C)(C1CCN(C(N)=O)CC1)[C@@H](O)c1cc(Cl)cc2cn[nH]c12 [Compound P-0426, (R)-4-(1-(5-chloro-1H-indazol-7-yl)-1-hydroxy-2-methylpropan-2-yl)piperidine-1-carboxamide]
13 | 0.0001 to 10 µM | 0.0001 to 10 µM | 0.0001 to 10 µM | 0.0001 to 10 µM | CNC(=O)N1CCC(C(C)(C)[C@@H](O)c2cc(Cl)cc3cn[nH]c23)CC1 [Compound P-0427, (R)-4-(1-(5-chloro-1H-indazol-7-yl)-1-hydroxy-2-methylpropan-2-yl)-N-methylpiperidine-1-carboxamide]
14 | 0.0001 to 10 µM | > 10 µM | 0.0001 to 10 µM | 0.0001 to 10 µM | CCNC(=O)N1CCC(C(C)(C)[C@@H](O)c2cc(Cl)cc3cn[nH]c23)CC1 [Compound P-0428, (R)-4-(1-(5-chloro-1H-indazol-7-yl)-1-hydroxy-2-methylpropan-2-yl)-N-ethylpiperidine-1-carboxamide]
15 | 0.0001 to 10 µM | > 10 µM | 0.0001 to 10 µM | 0.0001 to 10 µM | CC(C)NC(=O)N1CCC(C(C)(C)[C@@H](O)c2cc(Cl)cc3cn[nH]c23)CC1 [Compound P-0429, (R)-4-(1-(5-chloro-1H-indazol-7-yl)-1-hydroxy-2-methylpropan-2-yl)-N-isopropylpiperidine-1-carboxamide]
16 | 0.0001 to 10 µM | 0.0001 to 10 µM | 0.0001 to 10 µM | 0.0001 to 10 µM | CC(C)(C1CCN(C(=O)Nc2cccnc2)CC1)[C@@H](O)c1cc(Cl)cc2cn[nH]c12 [Compound P-0430, (R)-4-(1-(5-chloro-1H-indazol-7-yl)-1-hydroxy-2-methylpropan-2-yl)-N-(pyridin-3-yl)piperidine-1-carboxamide]
17 | 0.0001 to 10 µM | 0.0001 to 10 µM | 10 to 100 µM | 0.0001 to 10 µM | CC(C)(C1CCN(C(=O)Nc2ccccc2)CC1)[C@@H](O)c1cc(Cl)cc2cn[nH]c12 [Compound P-0431, (R)-4-(1-(5-chloro-1H-indazol-7-yl)-1-hydroxy-2-methylpropan-2-yl)-N-phenylpiperidine-1-carboxamide]
18 | 0.0001 to 10 µM | > 10 µM | 0.0001 to 10 µM | 0.0001 to 10 µM | CC(C)(C1CCN(C(=O)Nc2ccccc2Cl)CC1)[C@@H](O)c1cc(Cl)cc2cn[nH]c12 [Compound P-0432, (R)-4-(1-(5-chloro-1H-indazol-7-yl)-1-hydroxy-2-methylpropan-2-yl)-N-(2-chlorophenyl) piperidine-1-carboxamide]
19 | 0.0001 to 10 µM | 0.0001 to 10 µM | > 200 µM | 0.0001 to 10 µM | CC(C)(C1CCN(C(=O)Nc2ccc(Cl)cc2)CC1)[C@@H](O)c1cc(Cl)cc2cn[nH]c12 [Compound P-0433, (R)-4-(1-(5-chloro-1H-indazol-7-yl)-1-hydroxy-2-methylpropan-2-yl)-N-(4-chlorophenyl) piperidine-1-carboxamide]
20 | 0.0001 to 10 µM | 0.0001 to 10 µM | 10 to 100 µM | 0.0001 to 10 µM | CC(C)(C1CCN(C(=O)Nc2cccc(F)c2)CC1)[C@@H](O)c1cc(Cl)cc2cn[nH]c12 [Compound P-0434, (R)-4-(1-(5-chloro-1H-indazol-7-yl)-1-hydroxy-2-methylpropan-2-yl)-N-(3-fluorophenyl) piperidine-1-carboxamide]
21 | 0.0001 to 10 µM | 0.0001 to 10 µM | 0.0001 to 10 µM | 0.0001 to 10 µM | COCC(=O)N1CCC(C(C)(C)[C@@H](O)c2cc(Cl)cc3cn[nH]c23)CC1 [Compound P-0435, (R)-1-(4-(1-(5-chloro-1H-indazol-7-yl)-1-hydroxy-2-methylpropan-2-yl)piperidin-1-yl)-2-methoxyethan-1-one]
22 | 0.0001 to 10 µM | 0.0001 to 10 µM | 0.0001 to 10 µM | 0.0001 to 10 µM | CC(C)(C1CCN(C(=O)CC#N)CC1)[C@@H](O)c1cc(Cl)cc2cn[nH]c12 [Compound P-0436, (R)-3-(4-(1-(5-chloro-1H-indazol-7-yl)-1-hydroxy-2-methylpropan-2-yl)piperidin-1-yl)-3-oxopropanenitrile]
23 | > 10 µM | > 10 µM | 0.0001 to 10 µM | 0.0001 to 10 µM | CC(C)(C1CCN(C(=O)Nc2ccccc2C(F)(F)F)CC1)[C@@H](O)c1cc(Cl)cc2cn[nH]c12 [Compound P-0437, (R)-4-(1-(5-chloro-1H-indazol-7-yl)-1-hydroxy-2-methylpropan-2-yl)-N-(2-(trifluoromethyl)phenyl)piperidine-1-carboxamide]
24 | 0.0001 to 10 µM | 0.0001 to 10 µM | 0.0001 to 10 µM | 0.0001 to 10 µM | CC(C)(C(O)c1cc(Cl)cc2cn[nH]c12)[C@H]1C[C@H]2CC[C@@H](C1)N2C(=O)NCC(F)(F)F (stereo partly drawn) [Compound P-0438, (1R,3r,5S)-3-(1-(5-chloro-1H-indazol-7-yl)-1-hydroxy-2-methylpropan-2-yl)-N-(2,2,2-trifluoroethyl)-8-azabicyclo[3.2.1] octane-8-carboxamide]
